The text below walks through data of ChEMBL document CHEMBL1140363, “Structure-driven HtL: design and synthesis of novel aminoindazole inhibitors of c-Jun N-terminal kinase activity” (Bioorg Med Chem Lett, 2005).

Mitogen-activated protein kinase 8, sequence (P45983 whole entry): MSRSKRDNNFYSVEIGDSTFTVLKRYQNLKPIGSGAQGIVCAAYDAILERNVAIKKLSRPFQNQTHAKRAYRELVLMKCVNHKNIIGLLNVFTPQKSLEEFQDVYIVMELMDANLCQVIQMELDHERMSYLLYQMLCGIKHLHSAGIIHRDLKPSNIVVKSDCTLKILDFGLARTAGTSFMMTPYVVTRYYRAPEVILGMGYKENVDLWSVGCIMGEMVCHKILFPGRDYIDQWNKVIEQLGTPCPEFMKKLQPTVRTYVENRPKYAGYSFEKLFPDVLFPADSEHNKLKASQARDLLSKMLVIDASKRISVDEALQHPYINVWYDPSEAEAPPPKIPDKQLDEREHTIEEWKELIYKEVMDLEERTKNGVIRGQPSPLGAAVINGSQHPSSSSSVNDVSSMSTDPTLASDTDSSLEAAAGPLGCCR

This test has as its target Mitogen-activated protein kinase 8 (Homo sapiens, UniProt P45983). The test can be described thus: Negative log of inhibitory concentration determined against c-Jun N-terminal kinase (Activity reported against the isolated JNK-1 enzyme).
The term IC50 denotes the concentration at which inhibition is half-maximal. Low readings indicate greater potency, high ones weaker potency. Take `CC(=O)Nc1ccc(CNc2[nH]nc3cccc(Oc4ccc(S(C)(=O)=O)cc4)c23)cc1`: the IC50 was 794 nM.

In the case of `O=C(NCc1ccccc1Cl)c1cccnc1Oc1ccccc1F`, the IC50 is 1580 nM. As to `Clc1cccc(CNc2[nH]nc3cccc(Oc4ccccc4)c23)c1`, half-maximal inhibition (IC50) required 1260 nM. This IC50 and that of the compound before are within 1.5-fold of each other. On to `COc1ccc(Oc2ncccc2C(=O)NCc2ccccc2Cl)cc1`, for which half-maximal inhibition (IC50) was put at 3980 nM. To `Nc1ccc2[nH]nc(NCc3ccccc3Cl)c2c1Oc1ccccc1` belongs 5010 nM; to `COc1ccc(OC)c(CNc2[nH]nc3cccc(Oc4ccc(S(C)(=O)=O)cc4)c23)c1`, 398 nM; to `O=[N+]([O-])c1ccc2[nH]nc(NCc3ccccc3Cl)c2c1Oc1ccccc1`, 1580 nM. In turn, `Clc1ccc(Cl)c(CNc2[nH]nc3cccc(Oc4ccccc4)c23)c1` gave an IC50 of 794 nM. `CC(=O)Nc1ccc(CNc2[nH]nc3cccc(Oc4ccc(F)cc4)c23)cc1`: it took 501 nM to reach half-maximal inhibition (IC50). Compared with the last compound, the IC50 is about 1.6-fold lower.

Compound `COc1ccc(OC)c(CNc2[nH]nc3ccc([N+](=O)[O-])c(Oc4ccccc4)c23)c1` showed an IC50 of 794 nM. To `COc1ccc(OC)c(CNC(=O)c2cccnc2Oc2ccccc2)c1` belongs 100 nM; to `C[C@H](NC(=O)c1cccnc1Oc1ccccc1)c1ccccc1`, 6310 nM. Next, `COc1ccc(OC)c(CNc2[nH]nc3cccc(Oc4ccc(F)cc4)c23)c1`: 200 nM; `CC(=O)Nc1ccc(CNc2[nH]nc3ccnc(Oc4ccccc4)c23)cc1`: 158 nM; `COc1ccc(OC)c(CNc2[nH]nc3cccc(Oc4ccccc4)c23)c1`: 126 nM. Next, `CC(=O)Nc1ccc(CNc2[nH]nc3cccc(Oc4ccccc4)c23)cc1`: 794 nM; `COc1ccc(OC)c(CNc2[nH]nc3ccnc(Oc4ccccc4)c23)c1`: 15.8 nM.
